The target in assay [1] is Alpha adrenergic receptor (1a and 1d) (Homo sapiens) (UniProt P35348+P25100). The assay can be described thus: Selectivity ratio of pKi for human adrenergic alpha-1a receptor to pKi for human adrenergic alpha1d receptor. The format is protein assay.
The target in assay [2] is T1, Alpha-1B adrenergic receptor (Rattus norvegicus) (UniProt P15823).
T1 sequence (whole entry): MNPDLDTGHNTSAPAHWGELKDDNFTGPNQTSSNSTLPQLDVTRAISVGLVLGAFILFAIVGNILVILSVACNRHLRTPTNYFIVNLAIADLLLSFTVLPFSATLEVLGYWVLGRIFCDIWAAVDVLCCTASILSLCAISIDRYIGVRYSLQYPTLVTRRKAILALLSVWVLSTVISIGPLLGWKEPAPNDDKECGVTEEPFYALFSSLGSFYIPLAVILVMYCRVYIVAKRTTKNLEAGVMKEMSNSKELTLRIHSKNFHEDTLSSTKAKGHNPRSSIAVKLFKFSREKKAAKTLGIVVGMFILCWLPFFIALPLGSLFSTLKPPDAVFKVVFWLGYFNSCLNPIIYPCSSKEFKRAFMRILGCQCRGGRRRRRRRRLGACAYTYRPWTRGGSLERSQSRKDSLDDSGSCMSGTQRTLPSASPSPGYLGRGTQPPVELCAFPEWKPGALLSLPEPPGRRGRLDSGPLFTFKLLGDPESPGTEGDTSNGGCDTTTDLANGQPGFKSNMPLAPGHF
As to the kind of experiment: (§1) Antagonist activity against adrenergic Alpha-1B receptor in rat spleen assessed as inhibition of phenylephrine-induced response. Type of assay: functional, tissue-based.

The target of assay [3] is T2, Alpha-1A adrenergic receptor (Homo sapiens, UniProt P35348).
T2 sequence (P35348 whole entry): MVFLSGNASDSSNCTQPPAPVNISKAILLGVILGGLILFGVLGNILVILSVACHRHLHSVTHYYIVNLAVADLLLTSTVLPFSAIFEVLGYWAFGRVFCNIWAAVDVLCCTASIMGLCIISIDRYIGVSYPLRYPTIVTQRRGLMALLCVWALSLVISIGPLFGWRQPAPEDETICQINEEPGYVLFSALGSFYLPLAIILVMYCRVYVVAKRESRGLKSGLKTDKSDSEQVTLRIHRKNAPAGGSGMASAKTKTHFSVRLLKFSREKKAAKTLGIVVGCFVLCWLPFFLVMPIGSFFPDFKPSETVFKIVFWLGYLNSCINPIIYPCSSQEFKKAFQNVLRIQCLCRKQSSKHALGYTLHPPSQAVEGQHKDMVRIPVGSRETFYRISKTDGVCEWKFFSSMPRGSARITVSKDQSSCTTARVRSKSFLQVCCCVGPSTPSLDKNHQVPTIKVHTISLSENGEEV
As to the kind of experiment: Displacement of [3H]prazosin from human adrenergic alpha-1a receptor expressed in CHO cells. Type of assay: cell-based.

Assay [4] concerns the target T3, Alpha-1D adrenergic receptor (Rattus norvegicus) (UniProt P23944).
T3 sequence (whole entry): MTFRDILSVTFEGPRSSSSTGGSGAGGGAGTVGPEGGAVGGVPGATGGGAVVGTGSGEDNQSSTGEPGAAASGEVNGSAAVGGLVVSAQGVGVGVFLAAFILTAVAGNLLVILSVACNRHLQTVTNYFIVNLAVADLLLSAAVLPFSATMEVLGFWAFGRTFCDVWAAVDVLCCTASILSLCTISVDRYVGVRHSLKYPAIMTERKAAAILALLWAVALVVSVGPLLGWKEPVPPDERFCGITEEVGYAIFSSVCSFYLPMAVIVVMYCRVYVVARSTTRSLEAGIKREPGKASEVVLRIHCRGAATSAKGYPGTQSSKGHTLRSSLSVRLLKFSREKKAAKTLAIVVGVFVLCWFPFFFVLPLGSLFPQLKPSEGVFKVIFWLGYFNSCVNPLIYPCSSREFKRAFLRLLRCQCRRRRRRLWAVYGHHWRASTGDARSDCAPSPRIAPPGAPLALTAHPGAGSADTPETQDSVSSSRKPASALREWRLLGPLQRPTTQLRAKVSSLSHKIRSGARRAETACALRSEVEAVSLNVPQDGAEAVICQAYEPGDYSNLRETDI
As to the kind of experiment: (§2) Antagonist activity against adrenergic Alpha-1D receptor in rat thoracic aorta assessed as noradrenaline-induced response. Type of assay: functional, tissue-based.

Assay [5] deals with T4, Alpha-1A adrenergic receptor (Rattus norvegicus, UniProt P43140).
T4 sequence (P43140 whole entry): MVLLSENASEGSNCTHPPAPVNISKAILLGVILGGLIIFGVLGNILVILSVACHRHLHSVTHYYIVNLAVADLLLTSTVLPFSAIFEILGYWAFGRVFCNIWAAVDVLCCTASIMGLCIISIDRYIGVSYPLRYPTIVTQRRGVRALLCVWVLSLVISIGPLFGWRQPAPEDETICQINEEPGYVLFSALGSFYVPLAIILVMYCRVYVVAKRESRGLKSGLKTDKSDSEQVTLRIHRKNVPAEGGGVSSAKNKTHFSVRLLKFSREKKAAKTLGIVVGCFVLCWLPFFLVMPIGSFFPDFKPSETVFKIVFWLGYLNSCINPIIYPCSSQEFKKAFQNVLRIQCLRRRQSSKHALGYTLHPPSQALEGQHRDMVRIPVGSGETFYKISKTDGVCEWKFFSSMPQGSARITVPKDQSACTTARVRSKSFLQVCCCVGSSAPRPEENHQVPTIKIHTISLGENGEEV
The assay can be described thus: Antagonist activity against adrenergic alpha-1A receptor in rat prostatic vas deferens assessed as inhibition of noradrenaline-induced contraction. The format is functional, tissue-based. To be noted: read-out: pA2 (converted).

In assay [6] the target is Alpha adrenergic receptor 1A and 1D (Rattus norvegicus) (UniProt P23944+P43140). As to the kind of experiment: Selectivity ratio for rat adrenergic alpha-1A receptor over rat adrenergic Alpha-1D receptor. Type of assay: functional.
Assay [7] concerns the target Alpha adrenergic receptor 1A and 1B (Rattus norvegicus) (UniProt P15823+P43140). The assay can be described thus: Selectivity ratio for rat adrenergic alpha-1A receptor over rat adrenergic Alpha-1B receptor. The format is functional.
The target of assay [8] is Adrenergic receptors; alpha-1 A & B (Homo sapiens) (UniProt P35348+P35368). As to the kind of experiment: Selectivity ratio of pKi for human adrenergic alpha-1a receptor to pKi for human adrenergic alpha-1b receptor. Type of assay: protein assay.
The species named for a further assay is Rattus norvegicus. As to the kind of experiment: Selectivity ratio for rat adrenergic Alpha-1D receptor over rat adrenergic Alpha-1B receptor. Type of assay: functional.
Assay [9] addresses T5, Alpha-1B adrenergic receptor (Homo sapiens, UniProt P35368).
T5 sequence (P35368 whole entry): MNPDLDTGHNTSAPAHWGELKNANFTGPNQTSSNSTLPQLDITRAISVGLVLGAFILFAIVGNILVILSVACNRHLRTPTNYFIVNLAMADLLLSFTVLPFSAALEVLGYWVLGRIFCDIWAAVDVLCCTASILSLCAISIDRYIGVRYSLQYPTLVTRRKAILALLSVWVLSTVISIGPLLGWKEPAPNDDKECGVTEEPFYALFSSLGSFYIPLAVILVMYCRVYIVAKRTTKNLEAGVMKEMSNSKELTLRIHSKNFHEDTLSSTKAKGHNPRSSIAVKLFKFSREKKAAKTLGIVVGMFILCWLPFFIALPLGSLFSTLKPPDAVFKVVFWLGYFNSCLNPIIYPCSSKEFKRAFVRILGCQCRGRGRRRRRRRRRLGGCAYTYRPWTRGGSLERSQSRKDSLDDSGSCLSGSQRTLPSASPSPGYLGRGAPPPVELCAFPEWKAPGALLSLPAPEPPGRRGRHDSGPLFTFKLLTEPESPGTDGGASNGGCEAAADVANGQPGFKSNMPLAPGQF
The assay can be described thus: Displacement of [3H]prazosin from human adrenergic alpha-1b receptor expressed in CHO cells. Type of assay: cell-based.

Assay [10] has as its target T6, Alpha-1D adrenergic receptor (Homo sapiens, UniProt P25100).
T6 sequence (P25100 whole entry): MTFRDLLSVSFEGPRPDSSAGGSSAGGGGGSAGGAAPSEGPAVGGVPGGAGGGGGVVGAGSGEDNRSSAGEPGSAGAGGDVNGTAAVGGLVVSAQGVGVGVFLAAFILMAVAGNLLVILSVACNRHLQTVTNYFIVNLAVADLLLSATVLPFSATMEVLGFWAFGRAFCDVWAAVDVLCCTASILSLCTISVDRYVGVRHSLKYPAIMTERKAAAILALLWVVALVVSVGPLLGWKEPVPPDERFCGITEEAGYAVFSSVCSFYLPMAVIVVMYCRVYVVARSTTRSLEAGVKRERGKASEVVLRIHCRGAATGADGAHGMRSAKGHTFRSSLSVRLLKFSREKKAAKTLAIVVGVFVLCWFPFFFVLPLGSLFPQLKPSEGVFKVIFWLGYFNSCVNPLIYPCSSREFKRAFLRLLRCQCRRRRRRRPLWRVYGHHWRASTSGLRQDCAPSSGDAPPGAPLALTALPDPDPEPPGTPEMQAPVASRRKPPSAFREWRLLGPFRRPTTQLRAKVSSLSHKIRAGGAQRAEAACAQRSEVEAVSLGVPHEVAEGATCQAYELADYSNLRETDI
As to the kind of experiment: Displacement of [3H]prazosin from human adrenergic alpha-1d receptor expressed in CHO cells. Type of assay: cell-based. A general note: Loss of bound radioactivity is the signal in a displacement assay; it reports binding, not function.

For the next assay, the species on record is Homo sapiens. As to the kind of experiment: Selectivity ratio of pKi for human adrenergic alpha-1d receptor to pKi for human adrenergic alpha-1b receptor.
Assay [11] deals with T7, Alpha-1B adrenergic receptor (Rattus norvegicus, UniProt P15823).
T7 sequence (P15823 whole entry): T1 sequence (whole entry)
The assay is described as §1. The format is functional, tissue-based. As to conditions: read-out: pA2 (converted).

Assay [12] deals with T8, Alpha-1D adrenergic receptor (Rattus norvegicus, UniProt P23944).
T8 sequence (P23944 whole entry): T3 sequence (whole entry)
Described as §2. The format is functional, tissue-based. As to conditions: read-out: pA2 (converted).

One may read the pKb as −log10 of the Kb, conventionally taken in molar units. As usually defined, the Ki is a measure of affinity in units of concentration, obtained from inhibition or displacement. Low readings indicate higher affinity, high ones lower affinity. Consider `COc1cc2nc(N3CCN(C(=O)c4ccccc4)[C@H]4CCCC[C@H]43)nc(N)c2cc1OC`, for which the Selectivity ratio was 1 in assay [1]; 2 in [6]; 21 in [7]; 8.5 in [8]; 12 in the assay listed under Rattus norvegicus; 7 in the assay filed under Homo sapiens. Also, the pKb in assay [2] was determined as 8.83; in [4] it was 7.76. The Ki was 4.17 nM in assay [3], 0.49 nM in [9] and 3.24 nM in assay [10]. Besides, the Kb in assay [5] was 30.9 nM.
As to `COc1cc2nc(N3CCN(C(=O)c4ccc(C)o4)[C@H]4CCCC[C@H]43)nc(N)c2cc1OC`, the Selectivity ratio in [1] was 5; in assay [6] it was 4; in assay [7] it was 148; in [8], 27; in the assay filed under Rattus norvegicus it was 41; in the assay listed under Homo sapiens, 6. Moreover, the Kb in [11] is 2.24 nM; in assay [12], 91.2 nM; in assay [5], 331 nM. The Ki was 23.4 nM in assay [3], 0.871 nM in assay [9] and 4.79 nM in [10].

For the origin of these results see ChEMBL document CHEMBL1147165, “Synthesis and alpha(1)-adrenoceptor antagonist activity of derivatives and isosters of the furan portion of (+)-cyclazosin” (Bioorg Med Chem, 2007).
